Results as given in patent publication US11020380B2, “Therapeutic compounds” (CELGENE QUANTICEL RESEARCH, INC., priority 2017, dated 2021).
Like-named read-outs stand apart in the source and are kept apart here.

Tests used:
Type in all cases: binding
CBP [1] = biological target: CBP (Homo sapiens, UniProt Q92793); test: In vitro CBP inhibition (AlphaScreen, biotinylated H4-tetraacetyl peptide)
Experimental: (§1) The CBP-inhibitory activity of the compounds described herein was determined by calculating the IC50. More specifically, CBP inhibitor activity was assayed as follows: CBP was cloned and expressed in E. coli as His-tag protein and purified by Nickel affinity and gel-filtration chromatography. […] CBP binding and inhibition is assessed by monitoring the interaction of biotinylated H4-tetraacetyl peptide (AnaSpec, H4K5/8/12/16(Ac), biotin-labeled) with the target using the AlphaScreen technology (Perkin Elmer). In a 384-well ProxiPlate CBP (50 nM final) was combined with peptide (20 nM final) in 50 mM HEPES (pH 7.3), 10 mM NaCl, 0.25 mM TCEP, 0.1% (w/v) BSA, and 0.005% (w/v) Brij-35 either in the presence of DMSO (final 0.4% DMSO) or compound dilution series in DMSO. After 20 min incubation at room temp, Alpha-streptavidin donor beads and Nickel Chelate acceptor beads were added to a final concentration of 5 μg/mL.
(§2) The ability of the compounds disclosed herein to inhibit CBP activity was quantified and the respective IC50 value determined.

BRD4 = BRD4 (Homo sapiens (Human), UniProt O60885); test: In vitro enzyme inhibition assay - BRD4 inhibition; conditions: BRD4 BD1
CBP [2] = test: In vitro CBP inhibition (AlphaScreen, biotinylated H4-tetraacetyl peptide); conditions: selectivity CBP vs BRD4
Experimental: as §1, §2

CBP (Homo sapiens, UniProt Q92793), sequence (Q92793 2-2442 limits assumed): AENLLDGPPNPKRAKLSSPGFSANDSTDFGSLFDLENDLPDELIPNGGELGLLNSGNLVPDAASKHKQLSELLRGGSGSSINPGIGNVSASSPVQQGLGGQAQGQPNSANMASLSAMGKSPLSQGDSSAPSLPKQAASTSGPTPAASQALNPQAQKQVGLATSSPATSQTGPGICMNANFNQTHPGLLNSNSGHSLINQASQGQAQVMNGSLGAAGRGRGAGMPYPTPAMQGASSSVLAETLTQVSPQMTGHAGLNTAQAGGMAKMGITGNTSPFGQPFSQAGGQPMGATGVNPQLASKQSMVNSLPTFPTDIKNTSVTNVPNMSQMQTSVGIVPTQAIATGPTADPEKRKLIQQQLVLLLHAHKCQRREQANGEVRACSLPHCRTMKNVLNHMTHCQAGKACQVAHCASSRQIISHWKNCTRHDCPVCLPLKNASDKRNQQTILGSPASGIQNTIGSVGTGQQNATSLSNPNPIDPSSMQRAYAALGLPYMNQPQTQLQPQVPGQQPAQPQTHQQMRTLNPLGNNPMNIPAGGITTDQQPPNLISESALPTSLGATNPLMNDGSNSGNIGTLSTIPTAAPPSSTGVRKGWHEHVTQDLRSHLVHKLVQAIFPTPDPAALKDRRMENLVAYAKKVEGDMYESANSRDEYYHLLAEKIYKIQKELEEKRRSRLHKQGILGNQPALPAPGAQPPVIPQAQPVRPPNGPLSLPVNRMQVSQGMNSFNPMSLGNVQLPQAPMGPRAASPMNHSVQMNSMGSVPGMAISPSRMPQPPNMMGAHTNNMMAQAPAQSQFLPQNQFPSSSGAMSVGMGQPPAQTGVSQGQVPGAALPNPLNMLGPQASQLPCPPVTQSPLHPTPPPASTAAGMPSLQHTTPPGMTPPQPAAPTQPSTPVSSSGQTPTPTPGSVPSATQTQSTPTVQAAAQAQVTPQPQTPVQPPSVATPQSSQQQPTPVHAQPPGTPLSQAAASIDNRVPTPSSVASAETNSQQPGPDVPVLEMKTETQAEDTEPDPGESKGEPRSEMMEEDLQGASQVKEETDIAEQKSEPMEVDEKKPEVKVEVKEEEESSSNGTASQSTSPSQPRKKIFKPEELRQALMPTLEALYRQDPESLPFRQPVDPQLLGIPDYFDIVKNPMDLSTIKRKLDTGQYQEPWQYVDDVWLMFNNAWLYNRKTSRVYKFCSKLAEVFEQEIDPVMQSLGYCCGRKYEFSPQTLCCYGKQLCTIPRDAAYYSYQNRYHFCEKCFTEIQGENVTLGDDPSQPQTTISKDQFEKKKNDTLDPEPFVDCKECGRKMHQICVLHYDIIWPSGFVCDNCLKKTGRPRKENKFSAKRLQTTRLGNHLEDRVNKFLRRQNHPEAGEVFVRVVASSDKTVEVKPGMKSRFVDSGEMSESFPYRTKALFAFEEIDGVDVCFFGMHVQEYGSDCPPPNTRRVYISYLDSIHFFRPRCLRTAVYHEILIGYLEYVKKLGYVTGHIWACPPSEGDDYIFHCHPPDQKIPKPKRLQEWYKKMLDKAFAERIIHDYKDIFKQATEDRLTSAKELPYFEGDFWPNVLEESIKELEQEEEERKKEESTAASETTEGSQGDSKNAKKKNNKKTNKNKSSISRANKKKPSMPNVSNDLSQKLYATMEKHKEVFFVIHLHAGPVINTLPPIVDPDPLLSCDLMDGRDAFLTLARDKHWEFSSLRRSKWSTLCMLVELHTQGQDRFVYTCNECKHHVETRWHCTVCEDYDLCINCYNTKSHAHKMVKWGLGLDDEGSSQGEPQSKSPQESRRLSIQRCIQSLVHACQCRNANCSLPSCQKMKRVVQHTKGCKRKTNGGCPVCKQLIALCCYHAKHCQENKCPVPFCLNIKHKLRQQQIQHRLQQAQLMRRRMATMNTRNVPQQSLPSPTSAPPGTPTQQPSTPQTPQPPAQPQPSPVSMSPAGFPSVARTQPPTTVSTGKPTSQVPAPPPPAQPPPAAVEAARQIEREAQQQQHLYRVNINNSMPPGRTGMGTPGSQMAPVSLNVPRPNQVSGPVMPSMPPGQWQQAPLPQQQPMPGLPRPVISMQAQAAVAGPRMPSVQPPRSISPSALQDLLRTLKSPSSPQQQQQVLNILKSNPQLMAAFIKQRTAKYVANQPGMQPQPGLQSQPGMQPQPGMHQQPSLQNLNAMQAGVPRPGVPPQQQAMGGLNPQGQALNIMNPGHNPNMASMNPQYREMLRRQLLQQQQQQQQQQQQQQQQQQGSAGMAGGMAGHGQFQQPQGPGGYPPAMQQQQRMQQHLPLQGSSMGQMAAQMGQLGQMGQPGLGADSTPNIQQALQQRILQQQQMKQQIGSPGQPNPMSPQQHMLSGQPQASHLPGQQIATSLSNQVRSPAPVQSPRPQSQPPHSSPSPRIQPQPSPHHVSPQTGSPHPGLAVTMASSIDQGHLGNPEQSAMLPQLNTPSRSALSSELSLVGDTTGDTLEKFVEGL

Row | Compound | IC50 (CBP [1]; read-out: CBP IC50) | IC50 (CBP [1]; read-out: CRREBBP IC50) | IC50 (BRD4) | IC50 for CBP compared with IC50 for BRD4 (CBP [2])
1 | 1-methyl-5-(1-(1-phenylethyl)-1H- pyrazol-4-yl)-4-(pyrrolidin-1-yl) pyridin-2(1H)-one [Example 41] | < 500 nM | < 500 nM | 500 to 5000 nM | 
2 | Cn1cc(-c2cnn(Cc3ccccc3)c2)c(-n2cccc2)cc1=O [5-(1-benzyl-1H-pyrazol-4-yl)-1-methyl-4-(1H-pyrrol-1-yl)pyridin-2(1H)-one] |  |  |  | lower IC50 for CBP than for BRD4
3 | CCOc1cc(=O)n(C)cc1-c1cnn(C(C)c2ccccc2)c1 (stereo not shown) [Example 39, 4-ethoxy-1-methyl-5-(1-(1-phenylethyl)-1H-pyrazol-4-yl) pyridin-2(1H)-one] | < 500 nM |  |  | 
4 | CNC(=O)[C@@H]1CCN(c2cc(=O)n(C)cc2-c2cnn(Cc3ccccc3)c2)C1 [Example 88] | < 500 nM |  |  | 
5 | CN(C)CCCOc1ccc(-c2cc(=O)n(C)cc2-c2cnn(-c3cccc(Cl)c3C#N)c2)cn1 [Example 356, 2-chloro-6-(4-(6-(3-(dimethylamino)propoxy)-1′-methyl-6′-oxo-1′,6′-dihydro-[3,4′-bipyridin]-3′-yl)-1H-pyrazol-1-yl)benzonitrile] | < 500 nM |  |  | 
